Experimental data as given in US6559101B2, “N- (5, 7-dimethoxy [1, 2, 4] triazolo [1, 5-a] pyrimidin-2-yl) arylsulfonamide compounds and their use as herbicides” (Dow AgroSciences LLC, priority 2000, dated 2003).

Key:
Assay type in all cases: in vivo
[1] = test system: giant foxtail (Setaria faberi); experiment: Postemergence herbicidal activity; conditions: scored after 2 weeks, 0 no injury, 100 complete kill
Method: (§1) Seeds of the desired test plant species were planted in Grace-Sierra MetroMix® 306 planting mixture, which typically has a pH of 6.0 to 6.8 and an organic matter content of about 30 percent, in plastic pots with a surface area of 64 square centimeters. When required to ensure good germination and healthy plants, a fungicide treatment and/or other chemical or physical treatment was applied. The plants were grown for 7-21 days in a greenhouse with an approximately 15 hr photoperiod which was maintained at about 23-29° C. during the day and 22-28° C. during the night. Nutrients and water were added on a regular basis and supplemental lighting was provided with overhead metal halide 1000 Watt lamps as necessary. The plants were employed for testing when they reached the first or second true leaf stage. A weighed amount of each test compound, determined by the highest rate to be tested, was placed in a 20 mL glass vial and was dissolved in 4 mL of a 97:3 v/v (volume/volume) mixture of acetone and dimethyl sulfoxide to obtain concentrated stock solutions. […] The concentrated stock solutions obtained were diluted with an aqueous mixture containing acetone, water, iso-propyl alcohol, dimethyl sulfoxide, Atplus 411F crop oil concentrate, and Triton X-155 surfactant (methylenebisdiamyl phenoxy polyethoxy ethanol) in a 48.5:39:10:1.5:1.0:0.02 v/v ratio to obtain spray solutions of known concentration. The solutions containing the highest concentration to be tested were prepared by diluting 2 mL aliquots of the stock solution with 13 mL of the mixture and lower concentrations were prepared by dilution of appropriate smaller portions of the stock solution. Approximately 1.5 mL aliquots of each solution of known concentration were sprayed evenly onto each of the test plant pots using a Devilbiss atomizer driven by compressed air pressure of 2 to 4 psi (140 to 280 kiloPascals) to obtain thorough coverage of each plant. Control plants were sprayed in the same manner with the aqueous mixture. In this test an application rate of 1 ppm results in the application of approximately 1 g/ha. The treated plants and control plants were placed in a greenhouse as described above and watered by sub-irrigation to prevent wash-off of the test compounds. After 2 weeks the condition of the test plants as compared with that of the untreated plants was determined visually and scored on a scale of 0 to 100 percent where 0 corresponds to no injury and 100 corresponds to complete kill.

[2] = test system: pigweed (Amaranthus retroflexus); experiment: Postemergence herbicidal activity; conditions: scored after 2 weeks, 0 no injury, 100 complete kill
Method: as §1

[3] = test system: wild buckwheat (Polygonum convolvulus); experiment: Postemergence herbicidal activity; conditions: scored after 2 weeks, 0 no injury, 100 complete kill
Method: as §1

[4] = test system: blackgrass (Alopecurus myosuroides); experiment: Postemergence herbicidal activity; conditions: scored after 2 weeks, 0 no injury, 100 complete kill
Method: as §1

[5] = test system: velvetleaf (Abutilion theophrasti); experiment: Postemergence herbicidal activity; conditions: scored after 2 weeks, 0 no injury, 100 complete kill
Method: as §1

[6] = test system: Rox orange sorghum (Sorghum bicolor); experiment: Postemergence herbicidal activity; conditions: scored after 2 weeks, 0 no injury, 100 complete kill
Method: as §1

[7] = test system: lambsquarters (Chenopodium album); experiment: Postemergence herbicidal activity; conditions: scored after 2 weeks, 0 no injury, 100 complete kill
Method: as §1

wild oats (Avena fatua) [8] = experiment: Postemergence herbicidal activity; conditions: scored after 2 weeks, 0 no injury, 100 complete kill
Method: as §1

[9] = test system: chickweed (Stellaria media); experiment: Postemergence herbicidal activity; conditions: scored after 2 weeks, 0 no injury, 100 complete kill
Method: as §1

viola (Viola tricolor) = experiment: Postemergence herbicidal activity; conditions: scored after 2 weeks, 0 no injury, 100 complete kill
Method: as §1

[10] = test system: cocklebur (Xanthium strumarium); experiment: Postemergence herbicidal activity; conditions: scored after 2 weeks, 0 no injury, 100 complete kill
Method: as §1

[11] = test system: crabgrass (Digitaria sanguinalis); experiment: Preemergence herbicidal activity; conditions: 17.5 g/Ha; scored after 3 weeks; 0 no injury, 100 complete kill or no germination
Method: (§2) The soil matrix was contained in plastic pots with a surface area of 161 square centimeters. When required to ensure good germination and healthy plants, a fungicide treatment and/or other chemical or physical treatment was applied. A weighed amount, determined by the highest rate to be tested, of each test compound was placed in a 20 mL glass vial and was dissolved in 8 mL of a 97:3 v/v (volume/volume) mixture of acetone and dimethyl sulfoxide to obtain concentrated stock solutions. […] The stock solutions obtained were diluted with a 99.9:0.1 mixture of water and Tween® 155 surfactant (ethoxylated sorbitan fatty acid ester) to obtain application solutions of known concentration. The solutions containing the highest concentration to be tested were prepared by diluting 4 mL aliquots of the stock solution with 8.5 mL of the mixture and lower concentrations were prepared by dilution of appropriate smaller portions of the stock solution. A 2.5 mL aliquot of each solution of known concentration was sprayed evenly onto the soil of each seeded pot using a Cornwall 5.0 mL glass syringe fitted with a TeeJet TN-3 hollow cone nozzle to obtain thorough coverage of the soil in each pot. Control pots were sprayed in the same manner with the aqueous mixture. A highest application rate of 4.48 kg/ha is achieved when 50 mg of test compound is employed. The treated pots and control pots were placed in a greenhouse with an approximately 15 hr photoperiod which was maintained at about 23-29° C. during the day and 22-28° C. during the night. Nutrients and water were added on a regular basis and supplemental lighting was provided with overhead metal halide 1000 Watt lamps as necessary. The water was added by top-irrigation. After 3 weeks the condition of the test plants that germinated and grew as compared with that of the untreated plants that germinated and grew was determined visually and scored on a scale of 0 to 100 percent where 0 corresponds to no injury and 100 corresponds to complete kill or no germination.

[12] = test system: giant foxtail (Setaria faberi); experiment: Preemergence herbicidal activity; conditions: 17.5 g/Ha; scored after 3 weeks; 0 no injury, 100 complete kill or no germination
Method: as §2

[13] = test system: pigweed (Amaranthus retroflexus); experiment: Preemergence herbicidal activity; conditions: 17.5 g/Ha; scored after 3 weeks; 0 no injury, 100 complete kill or no germination
Method: as §2

[14] = test system: blackgrass (Alopecurus myosuroides); experiment: Preemergence herbicidal activity; conditions: 17.5 g/Ha; scored after 3 weeks; 0 no injury, 100 complete kill or no germination
Method: as §2

[15] = test system: velvetleaf (Abutilion theophrasti); experiment: Preemergence herbicidal activity; conditions: 17.5 g/Ha; scored after 3 weeks; 0 no injury, 100 complete kill or no germination
Method: as §2

[16] = test system: Rox orange sorghum (Sorghum bicolor); experiment: Preemergence herbicidal activity; conditions: 17.5 g/Ha; scored after 3 weeks; 0 no injury, 100 complete kill or no germination
Method: as §2

[17] = test system: wild poinsettia (Euphorbia heterophylla); experiment: Preemergence herbicidal activity; conditions: 17.5 g/Ha; scored after 3 weeks; 0 no injury, 100 complete kill or no germination
Method: as §2

wild oats (Avena fatua) [18] = experiment: Preemergence herbicidal activity; conditions: 17.5 g/Ha; scored after 3 weeks; 0 no injury, 100 complete kill or no germination
Method: as §2

[19] = test system: morningglory (Ipomoea hederacea); experiment: Preemergence herbicidal activity; conditions: 17.5 g/Ha; scored after 3 weeks; 0 no injury, 100 complete kill or no germination
Method: as §2

[20] = test system: barnyardgrass (Echinochloa crus-galli); experiment: Preemergence herbicidal activity; conditions: 17.5 g/Ha; scored after 3 weeks; 0 no injury, 100 complete kill or no germination
Method: as §2

[21] = test system: cocklebur (Xanthium strumarium); experiment: Preemergence herbicidal activity; conditions: 17.5 g/Ha; scored after 3 weeks; 0 no injury, 100 complete kill or no germination
Method: as §2

Compound | Preemergence herbicidal activity DIGSA [11] | Preemergence herbicidal activity SETFA [12] | Preemergence herbicidal activity AMARE [13] | Preemergence herbicidal activity ALOMY [14] | Preemergence herbicidal activity ABUTH [15] | Preemergence herbicidal activity SORBI [16] | Preemergence herbicidal activity EPHHL [17] | Preemergence herbicidal activity AVEFA (wild oats (Avena fatua) [18]) | Preemergence herbicidal activity IPOHE [19] | Preemergence herbicidal activity ECHCG [20] | Preemergence herbicidal activity XANST [21] | other results
COc1cc(OC)n2nc(NS(=O)(=O)c3c(OC)cccc3OC)nc2n1 [Compound 2] | 80% | 100% | 100% | 100% | 75% | 95% | 85% | 75% | 85% | 60% | 80% | Postemergence herbicidal activity SETFA ([1]; 15.6 ppm): 98%; Postemergence herbicidal activity AMARE ([2]; 15.6 ppm): 95%; Postemergence herbicidal activity POLCO ([3]; 15.6 ppm): 98%; Postemergence herbicidal activity ALOMY ([4]; 15.6 ppm): 98%; Postemergence herbicidal activity ABUTH ([5]; 15.6 ppm): 95%; Postemergence herbicidal activity SORBI ([6]; 15.6 ppm): 100%; Postemergence herbicidal activity CHEAL ([7]; 15.6 ppm): 90%; Postemergence herbicidal activity AVEFA (wild oats (Avena fatua) [8]; 15.6 ppm): 98%; Postemergence herbicidal activity STEME ([9]; 15.6 ppm): 98%; Postemergence herbicidal activity VIOTR (viola (Viola tricolor); 15.6 ppm): 90%; Postemergence herbicidal activity XANST ([10]; 15.6 ppm): 70%
COc1cc(OC)n2nc(NS(=O)(=O)c3c(OCCF)cccc3C(F)(F)F)nc2n1 [Compound 3, N-(5,7-dimethoxy[1,2,4]triazolo[1,5-a]pyrimidin-2-yl)-2-(2-fluoroethoxy)-6-(trifluoromethyl)benzenesulfonamide] | 100% | 100% | 100% | 100% | 100% | 100% | 90% | 95% | 98% | 100% | 100% | Postemergence herbicidal activity SETFA ([1]; 3.9 ppm): 98%; Postemergence herbicidal activity AMARE ([2]; 3.9 ppm): 98%; Postemergence herbicidal activity POLCO ([3]; 3.9 ppm): 98%; Postemergence herbicidal activity ALOMY ([4]; 3.9 ppm): 95%; Postemergence herbicidal activity ABUTH ([5]; 3.9 ppm): 80%; Postemergence herbicidal activity SORBI ([6]; 3.9 ppm): 70%; Postemergence herbicidal activity CHEAL ([7]; 3.9 ppm): 95%; Postemergence herbicidal activity AVEFA (wild oats (Avena fatua) [8]; 3.9 ppm): 70%; Postemergence herbicidal activity STEME ([9]; 3.9 ppm): 95%; Postemergence herbicidal activity VIOTR (viola (Viola tricolor); 3.9 ppm): 90%; Postemergence herbicidal activity XANST ([10]; 3.9 ppm): 75%
